Measurements taken from US8722744B2, “Galenical form for the administration of paracetamol by transmucous means” (priority 2006, dated 2014).

Key:
[1] = administered dosage; cited from earlier work
[2] = Dissolution of paracetamol in hydroalcoholic solution; format: physicochemical; conditions: ethanol at 45%
Method: The coefficient for dissolution of paracetamol in ethanol makes it possible to obtain a complete dissolution of said active ingredient at a level of 250 mg of paracetamol per 2 ml of ethanol at 45%. This coefficient can be modulated based on the degree of alcohol and the water/ethanol ratio that is used. By way of example, a 45% water/ethanol mixture at 50/50 by volume produces a better solubilization of paracetamol, compared to that obtained in pure ethanol.

CC(=O)Nc1ccc(O)cc1 [paracetamol]
dosage above which toxic to the liver [1]: higher than 4 g
complete dissolution of the active ingredient [2]: 250 mg per 2 ml
